The molecules below were run against T1, chimeric human H3 receptor (Homo sapiens, UniProt Q9Y5N1) (assay: Chimeric human H3 receptor GTP binding assay (agonist-stimulated GTP-gamma35S binding, Example 7)). Settings: Table II "Ki", symbol *; assay of Example 7.
T1 construct: made in house; host or cells: Sf9 insect cells (baculovirus); P2 membrane preparation
Format: biochemical
Method in brief: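 Sf9 membranes co-expressing chimeric human H3 receptor and heterotrimeric G-protein, 35 μg/tube, in pH 7.4 Tris buffer with 10 μM GDP. Test compounds (10^−10–10^−6 M) competed against 1 μM histamine, […] GTP-gamma35S, 60 min at room temperature. Filter-bound radioactivity counted; IC50 converted to Ki by Cheng-Prusoff. Agonism/inverse agonism tested without histamine (EC50).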

T1 sequence (Q9Y5N1 with tags, fused parts or gaps): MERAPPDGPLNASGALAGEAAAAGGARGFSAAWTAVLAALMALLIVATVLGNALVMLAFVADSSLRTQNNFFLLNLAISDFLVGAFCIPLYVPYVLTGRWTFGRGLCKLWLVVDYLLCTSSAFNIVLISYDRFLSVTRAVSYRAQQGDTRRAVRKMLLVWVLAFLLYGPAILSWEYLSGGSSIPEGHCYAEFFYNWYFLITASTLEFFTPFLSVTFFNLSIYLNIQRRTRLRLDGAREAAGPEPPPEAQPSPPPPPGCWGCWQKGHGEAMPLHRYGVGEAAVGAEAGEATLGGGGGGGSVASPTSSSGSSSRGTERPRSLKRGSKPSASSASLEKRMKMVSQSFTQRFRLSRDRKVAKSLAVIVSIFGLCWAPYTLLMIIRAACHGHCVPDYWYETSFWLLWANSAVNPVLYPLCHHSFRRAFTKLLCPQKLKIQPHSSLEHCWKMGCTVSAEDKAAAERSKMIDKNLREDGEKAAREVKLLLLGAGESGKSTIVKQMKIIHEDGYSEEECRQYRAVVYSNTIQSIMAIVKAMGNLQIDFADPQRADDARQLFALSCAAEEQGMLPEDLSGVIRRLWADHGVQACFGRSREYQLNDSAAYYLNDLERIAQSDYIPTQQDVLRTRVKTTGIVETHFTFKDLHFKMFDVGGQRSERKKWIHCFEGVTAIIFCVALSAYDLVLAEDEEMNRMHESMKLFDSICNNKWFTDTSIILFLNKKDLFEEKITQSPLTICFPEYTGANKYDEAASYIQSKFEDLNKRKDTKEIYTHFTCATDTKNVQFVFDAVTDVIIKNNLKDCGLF

Ki, < 1000 nM:
O=C1CCCN1CCCNc1ccc2c(n1)CCN(CC(=O)N1CCN(C3CCC3)CC1)C2 [Compound 653, 1-[3-({6-[2-(4-cyclobutylpiperazin-1-yl)-2-oxoethyl]-5,6,7,8-tetrahydro-1,6-naphthyridin-2-yl}amino)propyl] pyrrolidin-2-one]
O=C(CN1CCc2nc(NC3CCC3)ccc2C1)N1CCN(C2CCC2)CC1 [Compound 654, N-cyclobutyl-6-[2-(4-cyclobutylpiperazin-1-yl)-2-oxoethyl]-5,6,7,8-tetrahydro-1,6-naphthyridin-2-amine]
CCC(C)Nc1ccc2c(n1)CCN(CC(=O)N1CCN(C3CCC3)CC1)C2 (stereo not shown) [Compound 655, N-sec-butyl-6-[2-(4-cyclobutylpiperazin-1-yl)-2-oxoethyl]-5,6,7,8-tetrahydro-1,6-naphthyridin-2-amine]
O=C(CN1CCc2nc(NC3CCCC3)ccc2C1)N1CCN(C2CCC2)CC1 [Compound 656, 6-[2-(4-cyclobutylpiperazin-1-yl)-2-oxoethyl]-N-cyclopentyl-5,6,7,8-tetrahydro-1,6-naphthyridin-2-amine]
CCCC(C)Nc1ccc2c(n1)CCN(CC(=O)N1CCN(C3CCC3)CC1)C2 (stereo not shown) [Compound 657, 6-[2-(4-cyclobutylpiperazin-1-yl)-2-oxoethyl]-N-(1-methylbutyl)-5,6,7,8-tetrahydro-1,6-naphthyridin-2-amine]
O=C(CN1CCc2nc(NC3CCCCC3)ccc2C1)N1CCN(C2CCC2)CC1 [Compound 658, 6-[2-(4-cyclobutylpiperazin-1-yl)-2-oxoethyl]-N-cyclohexyl-5,6,7,8-tetrahydro-1,6-naphthyridin-2-amine]
O=C(CN1CCc2nc(NCC3CCCCC3)ccc2C1)N1CCN(C2CCC2)CC1 [Compound 659, 6-[2-(4-cyclobutylpiperazin-1-yl)-2-oxoethyl]-N-(cyclohexylmethyl)-5,6,7,8-tetrahydro-1,6-naphthyridin-2-amine]
CCC(CC)CNc1ccc2c(n1)CCN(CC(=O)N1CCN(C3CCC3)CC1)C2 [Compound 660, 6-[2-(4-cyclobutylpiperazin-1-yl)-2-oxoethyl]-N-(2-ethylbutyl)-5,6,7,8-tetrahydro-1,6-naphthyridin-2-amine]
CC(C)C(C)Nc1ccc2c(n1)CCN(CC(=O)N1CCN(C3CCC3)CC1)C2 (stereo not shown) [Compound 661, 6-[2-(4-cyclobutylpiperazin-1-yl)-2-oxoethyl]-N-(1,2-dimethylpropyl)-5,6,7,8-tetrahydro-1,6-naphthyridin-2-amine]
CCC(CC)Nc1ccc2c(n1)CCN(CC(=O)N1CCN(C3CCC3)CC1)C2 [Compound 662, 6-[2-(4-cyclobutylpiperazin-1-yl)-2-oxoethyl]-N-(1-ethylpropyl)-5,6,7,8-tetrahydro-1,6-naphthyridin-2-amine]
COCCNc1ccc2c(n1)CCN(CC(=O)N1CCN(C3CCC3)CC1)C2 [Compound 663, 6-[2-(4-cyclobutylpiperazin-1-yl)-2-oxoethyl]-N-(2-methoxyethyl)-5,6,7,8-tetrahydro-1,6-naphthyridin-2-amine]
COCCCNc1ccc2c(n1)CCN(CC(=O)N1CCN(C3CCC3)CC1)C2 [Compound 664, 6-[2-(4-cyclobutylpiperazin-1-yl)-2-oxoethyl]-N-(3-methoxypropyl)-5,6,7,8-tetrahydro-1,6-naphthyridin-2-amine]
CCC(COC)Nc1ccc2c(n1)CCN(CC(=O)N1CCN(C3CCC3)CC1)C2 (stereo not shown) [Compound 666, 6-[2-(4-cyclobutylpiperazin-1-yl)-2-oxoethyl]-N-[1-(methoxymethyl)propyl]-5,6,7,8-tetrahydro-1,6-naphthyridin-2-amine]
CCOCCNc1ccc2c(n1)CCN(CC(=O)N1CCN(C3CCC3)CC1)C2 [Compound 667, 6-[2-(4-cyclobutylpiperazin-1-yl)-2-oxoethyl]-N-(2-ethoxyethyl)-5,6,7,8-tetrahydro-1,6-naphthyridin-2-amine]
CO[C@H]1CCN(c2ccc3c(n2)CCN(CC(=O)N2CCN(C4CCC4)CC2)C3)C1 [Compound 670, 6-[2-(4-cyclobutylpiperazin-1-yl)-2-oxoethyl]-2-[(3S)-3-methoxypyrrolidin-1-yl]-5,6,7,8-tetrahydro-1,6-naphthyridine]
COCCC1CCN(c2ccc3c(n2)CCN(CC(=O)N2CCN(C4CCC4)CC2)C3)CC1 [Compound 672, 6-[2-(4-cyclobutylpiperazin-1-yl)-2-oxoethyl]-2-[4-(2-methoxyethyl)piperidin-1-yl]-5,6,7,8-tetrahydro-1,6-naphthyridine]
COCC1CCN(c2ccc3c(n2)CCN(CC(=O)N2CCN(C4CCC4)CC2)C3)CC1 [Compound 673, 6-[2-(4-cyclobutylpiperazin-1-yl)-2-oxoethyl]-2-[4-(methoxymethyl)piperidin-1-yl]-5,6,7,8-tetrahydro-1,6-naphthyridine]
COCCC1CCCN(c2ccc3c(n2)CCN(CC(=O)N2CCN(C4CCC4)CC2)C3)C1 (stereo not shown) [Compound 674, 6-[2-(4-cyclobutylpiperazin-1-yl)-2-oxoethyl]-2-[3-(2-methoxyethyl)piperidin-1-yl]-5,6,7,8-tetrahydro-1,6-naphthyridine]
N#CCC1CCN(c2ccc3c(n2)CCN(CC(=O)N2CCN(C4CCC4)CC2)C3)CC1 [Compound 675, (1-{6-[2-(4-cyclobutylpiperazin-1-yl)-2-oxoethyl]-5,6,7,8-tetrahydro-1,6-naphthyridin-2-yl}piperidin-4-yl)acetonitrile]
CC1CCCCN1c1ccc2c(n1)CCN(CC(=O)N1CCN(C3CCC3)CC1)C2 (stereo not shown) [Compound 676, 6-[2-(4-cyclobutylpiperazin-1-yl)-2-oxoethyl]-2-(2-methylpiperidin-1-yl)-5,6,7,8-tetrahydro-1,6-naphthyridine]
CN(c1ccc2c(n1)CCN(CC(=O)N1CCN(C3CCC3)CC1)C2)C1CCCCC1 [Compound 677, 6-[2-(4-cyclobutylpiperazin-1-yl)-2-oxoethyl]-N-cyclohexyl-N-methyl-5,6,7,8-tetrahydro-1,6-naphthyridin-2-amine]
COC[C@@H]1CCCN1c1ccc2c(n1)CCN(CC(=O)N1CCN(C3CCC3)CC1)C2 [Compound 678, 6-[2-(4-cyclobutylpiperazin-1-yl)-2-oxoethyl]-2-[(2S)-2-(methoxymethyl)pyrrolidin-1-yl]-5,6,7,8-tetrahydro-1,6-naphthyridine]
COC[C@H]1CCCN1c1ccc2c(n1)CCN(CC(=O)N1CCN(C3CCC3)CC1)C2 [Compound 679, 6-[2-(4-cyclobutylpiperazin-1-yl)-2-oxoethyl]-2-[(2R)-2-(methoxymethyl)pyrrolidin-1-yl]-5,6,7,8-tetrahydro-1,6-naphthyridine]
COC1CCN(c2ccc3c(n2)CCN(CC(=O)N2CCN(C4CCC4)CC2)C3)CC1 [Compound 681, 6-[2-(4-cyclobutylpiperazin-1-yl)-2-oxoethyl]-2-(4-methoxypiperidin-1-yl)-5,6,7,8-tetrahydro-1,6-naphthyridine]

Same assay, conditions: Table II; assay of Example 7

Ki, < 1000 nM:
O=C(CN1CCc2nc(N3CCCC(C(F)(F)F)C3)ccc2C1)N1CCN(C2CCC2)CC1 (stereo not shown) [Compound 682, 6-[2-(4-cyclobutylpiperazin-1-yl)-2-oxoethyl]-2-[3-(trifluoromethyl)piperidin-1-yl]-5,6,7,8-tetrahydro-1,6-naphthyridine]
N#Cc1ccc(-c2ncc3c(n2)CCN(CC(=O)N2CCN(C4CCC4)CC2)C3)cc1 [Compound 683, 4-{6-[2-(4-cyclobutylpiperazin-1-yl)-2-oxoethyl]-5,6,7,8-tetrahydropyrido[4,3-d]pyrimidin-2-yl]benzonitrile]
O=C(CN1CCc2nn(C3CCCC3)cc2C1)N1CCN(C2CCC2)CC1 [Compound 684, 5-[2-(4-cyclobutylpiperazin-1-yl)-2-oxoethyl]-2-cyclopentyl-4,5,6,7-tetrahydro-2H-pyrazolo[4,3-c] pyridine]
O=C(CN1CCc2nn(C3CCOCC3)cc2C1)N1CCN(C2CCC2)CC1 [Compound 685]
N#Cc1cnc(-n2cc3c(n2)CCN(CC(=O)N2CCN(C4CCC4)CC2)C3)nc1 [Compound 686, 2-{5-[2-(4-cyclobutylpiperazin-1-yl)-2-oxoethyl]-4,5,6,7-tetrahydro-2H-pyrazolo[4,3-c]pyridin-2-yl}pyrimidine-5-carbonitrile]
N#Cc1ccc(-n2cc3c(n2)CCN(CC(=O)N2CCN(C4CCC4)CC2)C3)nc1 [Compound 687, 6-{5-[2-(4-cyclobutylpiperazin-1-yl)-2-oxoethyl]-4,5,6,7-tetrahydro-2H-pyrazolo[4,3-c]pyridin-2-yl}nicotinonitrile]
O=C(CN1CCc2nn(-c3ccc4nncn4n3)cc2C1)N1CCN(C2CCC2)CC1 [Compound 688, 6-{5-[2-(4-cyclobutylpiperazin-1-yl)-2-oxoethyl]-4,5,6,7-tetrahydro-2H-pyrazolo[4,3-c]pyridin-2-yl}[1,2,4]triazolo[4,3-b]pyridazine]
Cc1nnc2ccc(-n3cc4c(n3)CCN(CC(=O)N3CCN(C5CCC5)CC3)C4)nn12 [Compound 689, 6-{5-[2-(4-cyclobutylpiperazin-1-yl)-2-oxoethyl]-4,5,6,7-tetrahydro-2H-pyrazolo[4,3-c]pyridin-2-y1}-3-methyl[1,2,4]triazolo [4,3-b]pyridazine]
N#CC1CCN(c2ncc3c(n2)CCN(CC(=O)N2CCN(C4CCC4)CC2)C3)CC1 [Compound 690, 1-{6-[2-(4-cyclobutylpiperazin-1-yl)-2-oxoethyl]-5,6,7,8-tetrahydropyrido[4,3-d]pyrimidin-2-yl}piperidine-4-carbonitrile]
NC(=O)C1CCN(c2ncc3c(n2)CCN(CC(=O)N2CCN(C4CCC4)CC2)C3)CC1 [Compound 691, 1-{6-[2-(4-cyclobutylpiperazin-1-yl)-2-oxoethyl]-5,6,7,8-tetrahydropyrido[4,3-d]pyrimidin-2-yl}piperidine-4-carboxamide]
